Assay results reported in US11465987B2, “Compounds for treatment of cancer” (ONCTERNAL THERAPEUTICS, INC., priority 2012, dated 2022).
Where two headings read alike, the source gives them in different places.

How the values were obtained:
[1] = tested on: PC-3 human prostate cancer cell line; experiment: cells; conditions: Homo sapiens
Excerpt: (§1) Cells were stained with SRB solution.

PC-3 cells [2] = experiment: Cell cycle analysis (PI staining, FACS), PC-3; assay type: cell-based; conditions: Homo sapiens, read-out: G2M phase arrest EC50
Procedure: Cell cycle distribution was determined by propidium iodide (PI) staining. Treated cells were washed with PBS and fixed with 70% ice-cold ethanol overnight. Fixed cells were then stained with 20 μg/mL of PI in the presence of RNase A (300 μg/mL) at 37° C. for 30 min. Cell cycle distribution was analyzed by fluorescence-activated cell sorting (FACS) analysis core services at the University of Tennessee Health Science Center, TN.
Flow cytometry was performed to study the effects of the compounds on cell cycle distribution. […] Cellular DNA was stained with 100 μg/mL propidium iodide and 100 μg/mL RNase A in PBS and flow cytometry was performed to determine the cell cycle distribution of the cells.

[3] = tested on: NCI/ADR-RES (P-gp over-expressing resistant line of OVCAR-8); experiment: Cytotoxicity (SRB) assay, NCI/ADR-RES; assay type: cell-based, human; conditions: NCI/ADR-RES versus OVCAR-8
in vivo = conditions: male, ICR, mouse, plasma, iv, 15 mg/kg
PC-3 cells [4] = experiment: Apoptosis detection by ELISA (cytoplasmic DNA-histone complexes), PC-3; assay type: cell-based, human; conditions: PC-3 and A375 cells, 24 h
Excerpt: Quantification of the Enrichment of Mono- and oligonucleosomes in the cytoplasm was used to determine the ability of the compounds to induce apoptosis (cell death detection ELISA PLUS, Roche, Germany) following the manufacturer's instructions.

PC-3 xenograft = experiment: In vivo PC-3 prostate tumor xenograft
[5] = tested on: melanoma and prostate cancer cell lines; experiment: Antiproliferative activity summarised over the cell line panel (range or average); assay type: cell-based; conditions: read-out: IC50 (range over tested cell lines)
WM-164 melanoma cells = experiment: Microtubule imaging (immunofluorescence); assay type: cell-based, human; conditions: WM-164 cells, 18 h
Excerpt: Primary antibody for tubulin and fluorescence-labeled secondary antibody were subsequently added to the cells. Cell nuclei were stained by DAPI. Whole Cell Stain Green was also applied to all cells. All images were acquired with an Olympus IX71 inverted fluorescence microscope (Olympus Corp., Tokyo, Japan) with overlays from separate images of tubulin (red), nuclei (blue), and whole cells (green).

[6] = tested on: T1, tubulin colchicine binding site; experiment: [3H]-colchicine competition-binding scintillation proximity assay; conditions: SPA, 0.03-100 μM
T1 construct: […]

[7] = tested on: confluent HUVEC monolayers; experiment: Endothelial monolayer permeability assay; conditions: FITC-dextran leakage, 1, 2, 4 h
[8] = tested on: HUVEC (Human Umbilical Vein Endothelial Cells); experiment: Endothelial cell growth inhibition (SRB); assay type: cell-based; conditions: HUVEC vs prostate cancer cells
[9] = tested on: HUVEC capillary tube formation on Matrigel; experiment: Capillary formation assay; assay type: cell-based, human; conditions: at toxic concentration
[10] = tested on: tubulin (colchicine, vinblastine and paclitaxel binding sites); experiment: MS competition binding assay; conditions: competitive mass binding assay
Excerpt: Each reaction was run in triplicate.

[11] = Rotarod test (in vivo neurotoxicity); design: species or system mouse; conditions: ICR mice, i.p. daily; 1h 5 or 15 mg/kg, vinblastine 0.5 mg/kg
Procedure: ICR mice received training three times a day for two days to enable them to stay on the rotating rod for >120 seconds at 12 rpm. Mice were then randomized by the length of time that they could stay on the rotating rod and divided into 7-8 mice per group. […] The rotarod test was performed twice a week. […] The rod speed was increased from […] to 40 rpm over a period of 5 min. Performance was measured as the length of time that a mouse could stay on the rotating rod.

Bovine brain tubulin = experiment: In vitro tubulin polymerization assay (bovine brain tubulin); assay type: biochemical; conditions: 10 μM
Procedure: The spectrophotometer was maintained at 37° C. for tubulin polymerization.

[12] = ICR, mouse, in vivo, ip
[13] = Aqueous solubility, Multiscreen Solubility Filter Plate, PBS pH 7.4
[14] = tested on: DU 145 human prostate cancer cell line; experiment: Cytotoxicity (SRB) assay, DU 145; assay type: cell-based; conditions: Homo sapiens, DU-145, SRB assay, prostate cancer DU 145; read-out: IC50 DU 145
Excerpt: as §1

[15] = tested on: B16-F1 mouse melanoma cell line; experiment: Cytotoxicity (SRB) assay, B16-F1; assay type: cell-based; conditions: Mus musculus, B16-F1, SRB assay, mouse melanoma B16-F1; read-out: IC50 B16-F1
[16] = Pharmacokinetic study in Sprague-Dawley rats; conditions: rat
[17] = tested on: PPC-1 human prostate cancer cell line; experiment: Cytotoxicity (SRB) assay, PPC-1; assay type: cell-based; conditions: Homo sapiens, PPC-1, SRB assay, prostate cancer PPC-1; read-out: IC50 PPC-1
Excerpt: as §1

[18] = tested on: LNCaP human prostate cancer cell line; experiment: Cytotoxicity (SRB) assay, LNCaP; assay type: cell-based; conditions: Homo sapiens, LNCaP, SRB assay, prostate cancer LNCaP; read-out: IC50 LNCaP
Excerpt: as §1

[19] = tested on: A375 human melanoma cell line; experiment: Cytotoxicity (SRB) assay, A375; assay type: cell-based; conditions: Homo sapiens, A-375, SRB assay, human melanoma A375; read-out: IC50 A375
[20] = read-out: IC50 PC-3, SRB assay, prostate cancer PC-3
[21] = read-out: IC50 ± SEM, PC-3, Table 21, n = 3
[22] = IV, 1h and 2r […], 5Ha and 5Hc 5 mg/kg

COc1cc(-c2nccc3ccc(-c4ccc5[nH]ccc5c4)cc23)cc(OC)c1OC [6a]
IC50 ([1]; read-out: IC50, PC-3, Table 7): 64.4 ± 12.2 nM
EC50 (PC-3 cells [2]): 53.4 nM

c1cc2ccc(-c3ccc4[nH]ccc4c3)cc2c(-c2ccc3[nH]ccc3c2)n1 [6b, 1,7-Bis-(1H-indol-5-yl)-isoquinoline]
EC50 (PC-3 cells [2]): 91.9 nM

COc1cc(C(=O)c2csc(-c3ccc(O)cc3)n2)cc(OC)c1OC [2l, (2-(4-Hydroxyphenyl)thiazol-4-yl)(3,4,5-trimethoxyphenyl)methanone]
Resistance factor [3]: 0.4
AUC (in vivo): 2600 ng·h/mL
Vd (in vivo): 16.5 L/kg
clearance (in vivo): 90 mL/min/kg
half-life (in vivo): 12.3 h
concentration inducing apoptosis (PC-3 cells [4]): greater than or equal to 200 nM
% T/C (PC-3 xenograft; PC-3, 50 mg/kg i.p.): 34%
% T/C (PC-3 xenograft; Prostate (PC-3) xenograft, 50 mg/kg i.p.): 34%
IC50 [5]: 76 to 116 nM
IC50 [1, 20]: 87 nM
IC50 [1, 21]: 87 ± 5 nM

COc1cc(C(=O)c2c[nH]c(-c3ccc(C)cc3)n2)cc(OC)c1OC [12da, (2-(p-tolyl)-1H-imidazol-4-yl)(3,4,5-trimethoxyphenyl)methanone]
effect on microtubules in words (WM-164 melanoma cells): microtubule fragmentation
colchicine site binding in words [6]: highest binding affinity

COc1cccc2c1C(=O)c1c(O)c3c(c(O)c1C2=O)C[C@@](O)(C(=O)CO)C[C@@H]3O[C@H]1C[C@H](N)[C@H](O)[C@H](C)O1 [doxorubicin]
permeability of endothelial cell monolayer in words [7]: did not induce any change
times more active against endothelial cells than against cancer cells [8]: not specific to endothelial cells
capillary construction in words [9]: did not affect the capillary construction

COc1cc(C(=O)c2csc(-c3ccccc3)n2)cc(OC)c1OC [1h, (2-Phenyl-thiazol-4-yl)-(3,4,5-trimethoxy-phenyl)-methanone]
competition for tubulin binding sites in words [10]: specifically competed with colchicine binding to tubulin
rotarod performance in words [11]: no significant difference
inhibition of tubulin polymerization (Bovine brain tubulin; absorbance 340 nm over 15 min): 90%
inhibition of tubulin polymerization (Bovine brain tubulin; after 20 min incubation, vs vehicle): 47%
% T/C (PC-3 xenograft; PC-3, 5 mg/kg i.p.): 29%
% T/C (PC-3 xenograft; PC-3, 15 mg/kg i.p.): 4%
mice that lost more than 15% body weight (PC-3 xenograft; PC-3 xenograft, 15 mg/kg i.p.): 1 of 8
IC50 [1, 20]: 29.1 ± 1.1 nM
IC50 ([1]; read-out: IC50 in PC3, Table 16B): 21 nM
IC50 [1, 21]: 21 ± 1 nM
dose not causing greater than 10% loss of body weight [12]: up to 30 mg/kg

CC(=O)O[C@H]1C(=O)[C@@]2(C)[C@H]([C@H](OC(=O)c3ccccc3)[C@]3(O)C[C@H](OC(=O)[C@H](O)[C@@H](NC(=O)c4ccccc4)c4ccccc4)C(C)=C1C3(C)C)[C@]1(OC(C)=O)CO[C@@H]1C[C@@H]2O [paclitaxel, reference compound]
effect on microtubules in words (WM-164 melanoma cells): condensation of microtubules
colchicine site binding in words [6]: only a flat line

COc1cc(C(=O)c2csc(-c3ccc(CN)cc3)n2)cc(OC)c1OC.Cl [2r, (2-(4-(Aminomethyl)phenyl)thiazol-4-yl)(3,4,5-trimethoxyphenyl)methanone hydrochloride]
increase of solubility ([13]; HCl salt, PBS): over 35 fold
aqueous solubility in PBS ([13]; PBS pH 7.4): over 35 μg/mL
IC50 [14]: 25 nM
IC50 [15]: 38 ± 11 nM
IC50 [5]: 13 to 80 nM
F, percent oral bioavailability [16]: 0.2%
CL, systemic clearance [16, 22]: 22 ± 13 mL/min/kg
Vss, volume of distribution following intravenous dosing [16, 22]: 0.33 ± 0.25 L/kg
Cmax, PO ([16]; PO, 1h, 5Ha, 5Hc 10 mg/kg, 2r 4 mg/kg): 3794 ± 1580 ng/mL
IC50 [17]: 34 nM
IC50 [1, 20]: 80 nM
IC50 [18]: 13 nM
IC50 [19]: 41 ± 13 nM
